Assay results: DBAASP
≈ marks a conversion by molar mass, not a printed value. Where “and” joins values, the source holds several entries; their conditions need not be identical. Identical values can stand only once. One block for each molecule: values may come before it.

Experiments:
Test in all cases: ≥ marks a high value that may be exact or a test limit, other limits are often not marked, values filed in µg/mL are converted to µM
[1] = tested on: Candida albicans ATCC 37092
[2] = tested on: Candida tropicalis ATCC 37097
[3] = tested on: Enterococcus faecalis ATCC 29212
[4] = tested on: Escherichia coli ATCC 25922
[5] = tested on: Klebsiella oxytoca ATCC 49131
[6] = tested on: Micrococcus luteus ATCC 49732
[7] = tested on: Proteus vulgaris ATCC 49132
[8] = tested on: Pseudomonas aeruginosa ATCC 27853
[9] = tested on: Staphylococcus aureus ATCC 29213
Escherichia coli W160-37 = tested on: Escherichia coli W160-37
[10] = tested on: Pseudomonas aeruginosa NCTC 6751
[11] = tested on: Staphylococcus aureus ATCC 8530
[12] = tested on: Candida albicans ATCC 10231
Candida glabrata 090902 = tested on: Candida glabrata 090902
[13] = tested on: Enterobacter cloacae CGMCC 1.57
[14] = tested on: Enterococcus faecalis 981
[15] = tested on: Enterococcus faecium 091299
[16] = tested on: Klebsiella pneumoniae 08040724
Nocardia asteroides = tested on: Nocardia asteroides
[17] = tested on: Pseudomonas aeruginosa CGMCC 1.50
[18] = tested on: Psychrobacter faecalis X29
[19] = tested on: Staphylococcus aureus ATCC 25923
[20] = tested on: Staphylococcus aureus A170
[21] = tested on: Staphylococcus epidermidis
Bacillus subtilis = tested on: Bacillus subtilis
Candida albicans = tested on: Candida albicans
Cryptococcus neoformans = tested on: Cryptococcus neoformans
Escherichia coli = tested on: Escherichia coli
Pseudomonas putida = tested on: Pseudomonas putida
Saccharomyces cerevisiae = tested on: Saccharomyces cerevisiae
Salmonella typhimurium = tested on: Salmonella typhimurium
Serratia sp. = tested on: Serratia sp.
Staphylococcus aureus = tested on: Staphylococcus aureus
Streptococcus mutans = tested on: Streptococcus mutans
[22] = tested on: Bacillus subtilis KCTC 3068
[23] = tested on: Escherichia coli CCARM 1229
[24] = tested on: Escherichia coli CCARM 1238
[25] = tested on: Escherichia coli KCTC 1682
[26] = tested on: Pseudomonas aeruginosa KCTC 1637
[27] = tested on: Salmonella typhimurium CCARM 8003
[28] = tested on: Salmonella typhimurium CCARM 8009
[29] = tested on: Salmonella typhimurium KCTC 1926
[30] = tested on: Staphylococcus aureus CCARM 3089
[31] = tested on: Staphylococcus aureus CCARM 3114
[32] = tested on: Staphylococcus aureus KCTC 1621
[33] = tested on: Staphylococcus epidermidis KCTC 1917

MIC [1]: 1.2 µM and 1.9 µM
MIC [2]: 0.8 µM and 1.2 µM
MIC [3]: 0.9 µM and 1.4 µM
MIC [4]: 1 µM and 0.7 µM
MIC [5]: 0.9 µM (≈ 2.13 µg/mL)
MIC [6]: 0.6 µM (≈ 1.42 µg/mL)
MIC [7]: 1.8 µM and 1.2 µM
MIC [8]: 0.5 µM and 1 µM
MIC [9]: 1.8 µM and 1.1 µM
Compound: CC(C)C[C@H](NC(=O)[C@H](CCCN=C(N)N)NC(=O)[C@H](CCCN=C(N)N)NC(=O)[C@H](Cc1ccc(O)cc1)NC(=O)[C@H](CC(C)C)NC(=O)[C@H](CCCN=C(N)N)NC(=O)[C@H](CCCN=C(N)N)NC(=O)[C@H](Cc1ccc(O)cc1)NC(=O)[C@H](CC(C)C)NC(=O)[C@H](CCCN=C(N)N)NC(=O)[C@H](CCCN=C(N)N)NC(=O)[C@H](Cc1ccc(O)cc1)NC(=O)[C@H](CC(C)C)NC(=O)[C@@H](N)CCCN=C(N)N)C(=O)N[C@@H](Cc1ccc(O)cc1)C(=O)N[C@@H](CCCN=C(N)N)C(N)=O [RLYRRLYRRLYRRLYR]

MIC (Escherichia coli W160-37): 11 µM (≈ 25.6 µg/mL)
MIC [10]: 22 µM (≈ 51.2 µg/mL)
MIC [11]: 11 µM (≈ 25.6 µg/mL)
Compound: CC(=O)N[C@@H](Cc1ccccc1)C(=O)N[C@@H](CCCN=C(N)N)C(=O)N[C@@H](CCCCN)C(=O)N[C@@H](CC(C)C)C(=O)N[C@@H](Cc1ccccc1)C(=O)N[C@@H](CCCN=C(N)N)C(=O)N[C@H](C(=O)N[C@@H](Cc1ccc(O)cc1)C(=O)N[C@@H](CO)C(=O)N[C@@H](CC(N)=O)C(=O)N[C@@H](Cc1ccccc1)C(=O)N[C@@H](CC(C)C)C(=O)N[C@@H](CCCN=C(N)N)C(=O)NCC(=O)N[C@@H](CCCCN)C(=O)N[C@@H](CC(C)C)C(=O)N[C@@H](CCCCN)C(=O)N[C@@H](CC(C)C)C(N)=O)C(C)C [FRKLFRVYSNFLRGKLKL]

MIC [12]: 100 µM (≈ 258 µg/mL)
MIC (Candida glabrata 090902): 12.5 µM (≈ 32.3 µg/mL)
MIC [13]: ≥ 100 µM
MIC [14]: 3.1 µM (≈ 8.01 µg/mL)
MIC [15]: ≥ 100 µM
MIC [4]: 200 µM (≈ 517 µg/mL)
MIC [16]: ≥ 400 µM
MIC (Nocardia asteroides): 3.1 µM (≈ 8.01 µg/mL)
MIC [17]: ≥ 400 µM
MIC [18]: 12.5 µM (≈ 32.3 µg/mL)
MIC [19]: 3.1 µM (≈ 8.01 µg/mL)
Compound: CC[C@H](C)[C@H](NC(=O)[C@H](CCCCN)NC(=O)[C@H](CC(C)C)NC(=O)[C@H](C)NC(=O)[C@@H](NC(=O)CNC(=O)[C@H](CCSC)NC(=O)[C@@H](N)Cc1ccccc1)[C@@H](C)O)C(=O)N[C@@H](C)C(=O)N[C@@H](C)C(=O)N[C@@H](CC(N)=O)C(=O)N[C@H](C(=O)N[C@@H](CC(C)C)C(=O)N1CCC[C@H]1C(=O)N[C@@H](C)C(=O)N[C@@H](C)C(=O)N[C@@H](Cc1ccccc1)C(=O)N[C@H]1CSSC[C@@H](C(=O)O)NC(=O)[C@H](CCCCN)NC(=O)[C@H](CCCCN)NC(=O)[C@H](Cc2ccccc2)NC(=O)[C@H]([C@@H](C)CC)NC(=O)[C@H](CCCCN)NC1=O)C(C)C [FMGTALKIAANVLPAAFCKIFKKC]

MIC [20]: 14.8 µM (≈ 20 µg/mL)
MIC [21]: 7.41 µM (≈ 10 µg/mL)
Compound: CC[C@H](C)[C@H](NC(=O)[C@@H]1CCCN1C(=O)[C@H](CC(C)C)NC(=O)[C@@H](N)CC(C)C)C(=O)N[C@H](C(=O)NCC(=O)N[C@@H](C)C(=O)N[C@@H](CC(C)C)C(=O)N[C@@H](CC(C)C)C(=O)N[C@@H](CCCCN)C(=O)N[C@@H](CO)C(=O)N[C@@H](CC(C)C)C(=O)N[C@@H](CC(C)C)C(=O)O)C(C)C [LLPIVGALLKSLL]

MIC (Bacillus subtilis): 16.5 µM (≈ 50 µg/mL)
MIC (Candida albicans): 33 µM (≈ 100 µg/mL)
MIC (Cryptococcus neoformans): ≥ 33 µM
MIC (Escherichia coli): 16.5 µM (≈ 50 µg/mL)
MIC (Pseudomonas putida): ≥ 33 µM
MIC (Saccharomyces cerevisiae): 3.95 µM (≈ 12 µg/mL)
MIC (Salmonella typhimurium): 6.59 µM (≈ 20 µg/mL)
MIC (Serratia sp.): ≥ 65.9 µM
MIC (Staphylococcus aureus): 33 µM (≈ 100 µg/mL)
MIC (Streptococcus mutans): 16.5 µM (≈ 50 µg/mL)
Compound: CC[C@H](C)[C@H](NC(=O)[C@H](CO)NC(=O)[C@H](CCCCN)NC(=O)[C@H](Cc1ccccc1)NC(=O)[C@H](CCCCN)NC(=O)[C@H](CCCCN)NC(=O)[C@H](CC(C)C)NC(=O)[C@@H]1CCCN1C(=O)[C@@H](NC(=O)[C@H](CCCCN)NC(=O)[C@@H](NC(=O)[C@@H](NC(=O)[C@H](C)N)C(C)C)C(C)C)C(C)C)C(=O)N[C@@H](CCCN=C(N)N)C(=O)N[C@@H](CCC(=O)O)C(=O)N[C@H](C(=O)N[C@@H](CCSC)C(=O)N[C@@H](CCCCN)C(=O)N[C@@H](CCC(=O)O)C(=O)N[C@@H](CCCCN)C(=O)NCC(=O)N[C@@H](CC(C)C)C(=O)N[C@@H](CC(C)C)C(=O)N[C@@H](CCC(=O)O)C(=O)N[C@@H](CC(=O)O)C(=O)N[C@@H](Cc1ccccc1)C(=O)O)[C@@H](C)O [AVVKVPLKKFKSIRETMKEKGLLEDF]

MIC [22]: 2 µM (≈ 2.54 µg/mL)
MIC [23]: 8 µM (≈ 10.1 µg/mL)
MIC [24]: 4 µM (≈ 5.07 µg/mL)
MIC [25]: 2 µM (≈ 2.54 µg/mL)
MIC [26]: 11.3 µM (≈ 14.4 µg/mL)
MIC [27]: 16 µM (≈ 20.3 µg/mL)
MIC [28]: 8 µM (≈ 10.1 µg/mL)
MIC [29]: 8 µM (≈ 10.1 µg/mL)
MIC [30]: 2 µM (≈ 2.54 µg/mL)
MIC [31]: 4 µM (≈ 5.07 µg/mL)
MIC [32]: 2 µM (≈ 2.54 µg/mL)
MIC [33]: 1 µM (≈ 1.27 µg/mL)
Compound: CC[C@H](C)[C@H](NC(=O)[C@H](C)NC(=O)[C@H](CC(C)C)NC(=O)[C@H](Cc1c[nH]c2ccccc12)NC(=O)[C@H](CC(C)C)NC(=O)[C@@H](N)CCCN=C(N)N)C(=O)N[C@@H](Cc1c[nH]c2ccccc12)C(=O)N[C@@H](CCCN=C(N)N)C(=O)N[C@@H](CCCN=C(N)N)C(N)=O [RLWLAIWRR]
